Structures are written as SMILES. pKd, pKi: −log10 of the molar value. Where “and” joins values, the source holds several entries; their conditions need not be identical. Identical values can stand only once. Like-named read-outs stand apart in the source and are kept apart here.

One data set has as its target T1, MT1-MMP hemopexin domain (Homo sapiens, UniProt P50281).
T1 construct: residues Cys319-Gly511 from the human gene; His6 (N); made in house; host or cells: HEK293 cells (transient, pEXPR-IBA42 vector)
As to the kind of experiment: Fluorescence polarisation competition binding assay. As to conditions: human MT1-MMP; for Ki: Binding Affinity (Ki in nM) Human ki, bicycle peptide-drug conjugates, two values given. The text has this: The MT1-MMP hemopexin-like repeats (also known as the MT1-MMP hemopexin domain), residues Cys319-Gly511 from the human gene, were transiently expressed in HEK293 cells as secreted N-terminally His6-tagged soluble protein, using the pEXPR-IBA42 (IBA) expression vector. Following expression, the protein was purified by Nickel-NTA affinity chromatography followed by gel filtration, and purity was checked by SDS-PAGE. Batch to batch variability was also monitored by fluorescence thermal shift experiments in the presence/absence of a hemopexin domain binding bicycle.
(§1) Binding affinity was measured using competition assays using Fluorescence Polarisation (anisotropy).
Fluoresceination may be performed on the N-terminal amino group of the peptide, which is separated from the bicycle core sequence by a sarcosine spacer (usually Sar5). This can be done during Fmoc solid phase synthesis or post-synthetically (after cyclisation with TBMB and purification) if the N-terminal amino group is unique to the peptide. Fluoresceination can also be performed on the C-terminus, usually on a Lysine introduced as the first C-terminal residue, which is then separated from the bicycle core sequence by a sarcosine spacer (usually Sar6). Thus, N-terminal tracers can have a molecular format described as Fluo-Gly-Sar5-A(BicycleCoreSequence), and (BicycleCoreSequence)-A-Sar6-K(Fluo) for a C-terminally fluoresceinated construct. Fluorescent tracers used in the Examples are A-(17-69)-A-Sar6-K(Fluo), A-(17-69-07)-A-Sar6-K(Fluo), and A-(17-69-12)-A-Sar6-K(Fluo).
(§2) Here, a pre-formed complex of PEX with the fluorescent PEX-binding tracer is titrated with free, non-fluoresceinated bicyclic peptide. Since all 17-69-based peptides are expected to bind at the same site, the titrant will displace the fluorescent tracer from PEX. Dissociation of the complex can be measured quantitatively, and the Kd of the competitor (titrant) to the target protein determined. The advantage of the competition method is that the affinities of non-fluoresceinated bicyclic peptides can be determined accurately and rapidly.
(§3) Subsequently, the non-fluorescent competitor bicyclic peptide (usually just the bicycle core sequence) is titrated, such that it displaces the fluorescent tracer from the target protein. The displacement of the tracer is measured and associated with a drop in fluorescence polarisation. The drop in fluorescence polarisation is proportional to the fraction of target protein bound with the non-fluorescent titrant, and thus is a measure of the affinity of titrant to target protein.
The raw data is fit to the analytical solution of the cubic equation that describes the equilibria between fluorescent tracer, titrant, and binding protein. The fit requires the value of the affinity of fluorescent tracer to the target protein, which can be determined separately by direct binding FP experiments (see previous section).
A general note: In fluorescence polarisation assays a small probe gives low polarisation when free and higher when bound to something large.

Data set [1] in a line: Plasma stability in mouse serum. As to conditions: 4 μm concentration, read-out: T1/2 in mouse serum. Format: in vitro ADME. The text has this:
(§4) The stability appears to be slightly greater than that of the corresponding conjugates in which the peptide is linked to the scaffold by three thioether linkages.

The target in a further data set is rat/mouse MT1-MMP (Mus musculus, UniProt P53690). As to the kind of experiment: Binding affinity to rat/mouse MT1-MMP, measured as previously described. The note with it: Binding Affinity (Ki in nM) rat/mouse ki, bicycle peptide-drug conjugates, two values given. The protocol: as §1, §2, §3
The raw data is fit to the analytical solution of the cubic equation that describes the equilibria between fluorescent tracer, titrant, and binding protein. The fit requires the value of the affinity of fluorescent tracer to the target protein, which can be determined separately by direct binding FP experiments (see previous section). The curve fitting was performed using Sigmaplot 12.0 and used an adapted version of the equation described by Zhi-Xin Wang (FEBS Letters 360 (1995) 111-114).
The in vitro binding affinities of the bicycle peptide-drug conjugates prepared above were measured for MT1-MMP as previously described herein.

The nature of data set [2]: Plasma stability in human serum. Format: in vitro ADME. The note with it: 4 μm concentration, read-out: T1/2 in human serum.
Source text: as §4

A further data set has as its system HT1080 tumor cells. Nature of the data set: In vivo efficacy against HT1080 tumors in BALB/c nude mice. As to conditions: biw dosing, BALB/c nude mice with HT1080 tumors. The protocol: HT1080 tumor cells were maintained in vitro as a monolayer culture in EMEM medium supplemented with 10% heat inactivated fetal bovine serum at 37 C in an atmosphere of 5% CO2 and air. The tumor cells were routinely subcultured twice weekly by trypsin-EDTA treatment. The cells growing in an exponential growth phase were harvested and counted for tumor inoculation.
BALB/c nude mice were inoculated subcutaneously at the right flank with HT1080 tumor cells […] in 0.2 ml of PBS for tumor development. 39 animals were randomized when the average tumor volume reached […].
The BDC compounds were formulated at 0.03 mg/ml in a vehicle buffer containing 25 mM histidine and 10% Sucrose. The formulations were administered twice weekly (biw) at 0.3, 1, 3 and 10 mg/kg. Tumor volume and body weight were measured up to 14 days from the first dosing.

Another data set concerns the target MT1-MMP (Homo sapiens, UniProt P50281). As to the kind of experiment: SPR binding. As to conditions: read-out: Binding Affinity Kd (SPR).

Turning to `CC[C@H](C)[C@@H]([C@@H](CC(=O)N1CCC[C@H]1[C@H](OC)[C@@H](C)C(=O)N[C@H](C)[C@@H](O)c1ccccc1)OC)N(C)C(=O)[C@@H](NC(=O)[C@H](C(C)C)N(C)C(=O)OCc1ccc(NC(=O)[C@H](CCCNC(N)=O)NC(=O)[C@@H](NC(=O)Cn2cc(CCC(=O)NCCC(=O)N(C)CC(=O)N(C)CC(=O)N(C)CC(=O)N(C)CC(=O)N(C)CC(=O)N(C)CC(=O)N(C)CC(=O)N(C)CC(=O)N(C)CC(=O)N(C)CC(=O)N[C@@H](C)C(=O)N[C@H]3CNCc4cc5cc(c4)CSC[C@H](NC(=O)[C@@H](C)NC(=O)[C@H](Cc4cccc6ccccc46)NC(=O)[C@H](CCC(=O)O)NC(=O)[C@H](CC(N)=O)NC(=O)[C@@H](C)NC3=O)C(=O)N[C@@H](CCC(=O)O)C(=O)N[C@@H](CC(=O)O)C(=O)N[C@@H](Cc3ccccc3)C(=O)N[C@@H](Cc3ccc(O)cc3)C(=O)N[C@@H](CC(=O)O)C(=O)N[C@@H](C(C)(C)C)C(=O)N[C@H](C(N)=O)CNC5)nn2)C(C)C)cc1)C(C)C` [BT17BDC-53], the Ki (commonly the dissociation constant of the complex between target and ligand, obtained from inhibition or displacement) is 3.6 nM and 2.5 nM at MT1-MMP hemopexin domain; 1.8 nM and 1.6 nM at rat/mouse MT1-MMP. Besides, the half-life at 4 μm in data set [1] and in data set [2] was above 50 h each time.
As to `CC[C@H](C)[C@@H]([C@@H](CC(=O)N1CCC[C@H]1[C@H](OC)[C@@H](C)C(=O)N[C@H](C)[C@@H](O)c1ccccc1)OC)N(C)C(=O)[C@@H](NC(=O)[C@H](C(C)C)N(C)C(=O)OCc1ccc(NC(=O)[C@H](CCCNC(N)=O)NC(=O)[C@@H](NC(=O)Cn2cc(CCC(=O)N[C@@H](C)C(=O)N[C@H]3CNCc4cc5cc(c4)CSC[C@H](NC(=O)[C@@H](C)NC(=O)[C@H](Cc4cccc6ccccc46)NC(=O)[C@H](CCC(=O)O)NC(=O)[C@H](CC(N)=O)NC(=O)[C@@H](C)NC3=O)C(=O)N[C@@H](CCC(=O)O)C(=O)N[C@@H](CC(=O)O)C(=O)N[C@@H](Cc3ccccc3)C(=O)N[C@@H](Cc3ccc(O)cc3)C(=O)N[C@@H](CC(=O)O)C(=O)N[C@@H](C(C)(C)C)C(=O)N[C@H](C(N)=O)CNC5)nn2)C(C)C)cc1)C(C)C` [BT17BDC-59], the inhibition constant Ki on MT1-MMP hemopexin domain is 2.8 nM and 2.7 nM; on rat/mouse MT1-MMP it was 1.8 nM and 1.7 nM. In the data set on HT1080 tumor cells, the tolerated dose entry is listed as “up to 3 mg/kg”.
Regarding `C#CCCC(=O)NCCC(=O)N(C)CC(=O)N(C)CC(=O)N(C)CC(=O)N(C)CC(=O)N(C)CC(=O)N(C)CC(=O)N(C)CC(=O)N(C)CC(=O)N(C)CC(=O)N(C)CC(=O)N[C@@H](C)C(=O)N[C@H]1CN(C)Cc2cc3cc(c2)CN(C)C[C@@H](C(N)=O)NC(=O)[C@H](C(C)(C)C)NC(=O)[C@H](CC(=O)O)NC(=O)[C@H](Cc2ccc(O)cc2)NC(=O)[C@H](Cc2ccccc2)NC(=O)[C@H](CC(=O)O)NC(=O)[C@H](CCC(=O)O)NC(=O)[C@H](CSC3)NC(=O)[C@@H](C)NC(=O)[C@H](Cc2cccc3ccccc23)NC(=O)[C@H](CCC(=O)O)NC(=O)[C@H](CC(N)=O)NC(=O)[C@@H](C)NC1=O` [17-69-07-N450, (PYA)-(B-Ala)-Sar10-A(Dap(Me))(D-Ala)NE(1Nal)(D-Ala)CEDFYD(tBuGly)(Dap(Me))], the pKd (as a rule, the negative decadic logarithm of the Kd, by convention in mol/L) at MT1-MMP was 8.72. For the same molecule, the pKi (in general, the negative decadic logarithm of the Ki, by convention in mol/L) on MT1-MMP hemopexin domain (bicycle peptides, read-out: Binding Affinity Ki (h)) was 8.43.

The values are drawn from patent publication US11730819B2, “Peptide derivatives having novel linkage structures” (priority 2016, dated 2023).
